Laboratory results from patent US8946203B2, “Benzodioxane inhibitors of leukotriene production” (Boehringer Ingelheim International GmbH, priority 2012, dated 2015).
Where two headings read alike, the source gives them in different places.

How the values were obtained:
human LTA4 hydrolase = target: T1, human LTA4 hydrolase (Homo sapiens, UniProt P09960); experiment: LTA4H Enzyme assay (cleavage of Arg-AMC, fluorescence); assay type: biochemical
T1 sequence (P09960 1-611): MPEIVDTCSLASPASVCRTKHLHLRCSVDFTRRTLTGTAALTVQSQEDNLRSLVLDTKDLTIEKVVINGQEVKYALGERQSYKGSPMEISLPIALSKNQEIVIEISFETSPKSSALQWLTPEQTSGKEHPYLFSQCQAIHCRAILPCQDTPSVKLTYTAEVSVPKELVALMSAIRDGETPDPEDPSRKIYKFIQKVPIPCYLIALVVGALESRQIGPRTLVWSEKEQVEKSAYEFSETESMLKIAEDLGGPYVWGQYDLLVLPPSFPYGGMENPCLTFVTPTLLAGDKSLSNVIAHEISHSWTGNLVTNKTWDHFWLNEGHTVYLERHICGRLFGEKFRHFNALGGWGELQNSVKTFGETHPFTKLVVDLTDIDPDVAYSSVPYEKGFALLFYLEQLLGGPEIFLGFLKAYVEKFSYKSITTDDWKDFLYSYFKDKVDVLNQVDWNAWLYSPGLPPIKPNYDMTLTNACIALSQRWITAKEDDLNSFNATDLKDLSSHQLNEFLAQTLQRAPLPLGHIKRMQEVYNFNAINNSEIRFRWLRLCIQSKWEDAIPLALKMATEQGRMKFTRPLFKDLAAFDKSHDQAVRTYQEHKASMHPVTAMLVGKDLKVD
In short: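 Aminomethylcoumarin release measured fluorimetrically (380/460 nm) after 1 h at room temperature. Reaction: 1 nM final enzyme, 50 μM final Arg-AMC and compound in Tris-HCl pH 7.5 with 100 mM KCl and 0.5% BSA.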

[1] = system: synthesis of LTB4 in human whole blood; experiment: human whole blood (HWB) assay, LTB4 production inhibition after calcimycin stimulation; assay type: cell-based; conditions: heparinized human whole blood, calcimycin 20 μM, plasma LTB4 by HTRF
In short: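 Plasma LTB4, quantified by HTRF immunoassay, is the read-out after calcimycin challenge (20 μM final, 30 min, 37 °C) of heparinized whole blood that had been pretreated with compound for 15 min at 37 °C; values given as IC50.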

[2] = LTA4H Enzyme 1 nM, Arg-AMC substrate 50 μM, room temperature 1 h, fluorescence, read-out: IC50 values of LTA4H Enzyme assay

Row | SMILES | IC50 (human LTA4 hydrolase; [2]) [nM] | IC50 [1] [nM] | IC50 (human LTA4 hydrolase) [nM]
1 | CC(=O)N1C[C@@H]2CC[C@H]1CN2Cc1ccc([C@H]2COc3cccnc3O2)cc1 [Example 264, 1-{(1S,4S)-5-[(S)-4-(2,3-Dihydro-[1,4]dioxino[2,3-b]pyridin-3-yl)-benzyl]-2,5-diaza-bicyclo[2.2.2]oct-2-yl}-ethanone] | 0.09 | 17 | –
2 | O=C(O)C1CCC(C2CCN(Cc3ccc([C@H]4COc5cccnc5O4)cc3)CC2)CC1 (stereo partly drawn) [Example 265, 4-{1-[(S)-4-(2,3-Dihydro-[1,4]dioxino[2,3-b]pyridin-3-yl)-benzyl]-piperidin-4-yl}-cyclohexanecarboxylic acid] | 0.16 | 150 | –
3 | O=C(O)C1CCCN(Cc2ccc([C@H]3COc4ccccc4O3)cc2)CC1 (stereo partly drawn) [Example 266, 1-[(S)-4-(2,3-Dihydro-benzo[1,4]dioxin-2-yl)-benzyl]-azepane-4-carboxylic acid] | 0.22 | 98 | –
4 | O=C(O)[C@H]1[C@@H]2CN(Cc3ccc([C@H]4COc5ccccc5O4)cc3)C[C@@H]21 [Example 267, [(1α,5α,6α)-3-[(S)-4-(2,3-Dihydro-benzo[1,4]dioxin-2-yl)-benzyl]-3-aza-bicyclo[3.1.0]hexane]-6-carboxylic acid] | 0.3 | 73 | –
5 | NC(=O)N1C[C@@H]2C[C@H]1CN2Cc1ccc([C@H]2COc3cccnc3O2)cc1 [Example 268, (1S,4S)-5-[(S)-4-(2,3-Dihydro-[1,4]dioxino[2,3-b]pyridin-3-yl)-benzyl]-2,5-diaza-bicyclo[2.2.1]heptane-2-carboxylic acid amide] | 0.11 | 66 | –
6 | OC1(c2ccccc2)CCN(Cc2ccc([C@H]3COc4cccnc4O3)cc2)CC1 [Example 269, 1-[(S)-4-(2,3-Dihydro-[1,4]dioxino[2,3-b]pyridin-3-yl)-benzyl]-4-phenyl-piperidin-4-ol] | 0.2 | 36 | –
7 | CC(=O)N1CC2CN(Cc3ccc([C@H]4COc5cccnc5O4)cc3)CC2C1 (stereo partly drawn) [Example 270, 1-{5-[(S)-4-(2,3-Dihydro-[1,4]dioxino[2,3-b]pyridin-3-yl)-benzyl]-hexahydro-pyrrolo[3,4-c]pyrrol-2-yl}-ethanone] | 0.14 | 35 | –
8 | CC(=O)N1CC2CCC(C1)N2Cc1ccc([C@H]2COc3cccnc3O2)cc1 [Example 271, 1-{8-[(S)-4-(2,3-Dihydro-[1,4]dioxino[2,3-b]pyridin-3-yl)-benzyl]-3,8-diaza-bicyclo[3.2.1]oct-3-yl}-ethanone] | 0.65 | 110 | –
9 | NC(=O)N1CC2CN(Cc3ccc([C@H]4COc5cccnc5O4)cc3)CC2C1 (stereo partly drawn) [Example 272, 5-[(S)-4-(2,3-Dihydro-[1,4]dioxino[2,3-b]pyridin-3-yl)-benzyl]-hexahydro-pyrrolo[3,4-c]pyrrole-2-carboxylic acid amide] | 0.09 | 71 | –
10 | NC(=O)N[C@@H]1C[C@H]2CC[C@@H](C1)N2Cc1ccc([C@H]2COc3cccnc3O2)cc1 [Example 273, {(exo)-8-[(S)-4-(2,3-Dihydro-[1,4]dioxino[2,3-b]pyridin-3-yl)-benzyl]-8-aza-bicyclo[3.2.1]oct-3-yl}-urea] | – | 110 | 0.16
11 | NC(=O)COC1CCN(Cc2ccc([C@H]3COc4cccnc4O3)cc2)CC1 [Example 274, 2-{1-[(S)-4-(2,3-Dihydro-[1,4]dioxino[2,3-b]pyridin-3-yl)-benzyl]-piperidin-4-yloxy}-acetamide] | 0.15 | 100 | –
12 | O=S1(=O)CCCN(Cc2ccc([C@H]3COc4cccnc4O3)cc2)CC1 [Example 275, (S)-3-[4-(1,1-Dioxo-1lambda6-[1,4]thiazepan-4-ylmethyl)-phenyl]-2,3-dihydro-[1,4]dioxino[2,3-b]pyridine] | 0.7 | 170 | –
13 | CC1(O)CCN(Cc2ccc([C@H]3COc4cccnc4O3)cc2)CC1 [Example 276, 1-[(S)-4-(2,3-Dihydro-[1,4]dioxino[2,3-b]pyridin-3-yl)-benzyl]-4-methyl-piperidin-4-ol] | 1.2 | 240 | –
14 | O=C(CO)N1C[C@@H]2C[C@H]1CN2Cc1ccc([C@H]2COc3cccnc3O2)cc1 [Example 277, 1-{(1S,4S)-5-[(S)-4-(2,3-Dihydro-[1,4]dioxino[2,3-b]pyridin-3-yl)-benzyl]-2,5-diaza-bicyclo[2.2.1]hept-2-yl}-2-hydroxy-ethanone] | 0.3 | 65 | –
15 | CC(=O)N[C@H]1C[C@H]2CC[C@@H](C1)N2Cc1ccc([C@H]2COc3cccnc3O2)cc1 [Example 278, N-{(endo)-8-[(S)-4-(2,3-Dihydro-[1,4]dioxino[2,3-b]pyridin-3-yl)-benzyl]-8-aza-bicyclo[3.2.1]oct-3-yl}-acetamide] | 0.26 | 73 | –
16 | CC(=O)NCC1CCN(Cc2ccc([C@H]3COc4cccnc4O3)cc2)CC1 [Example 279, N-{1-[(S)-4-(2,3-Dihydro-[1,4]dioxino[2,3-b]pyridin-3-yl)-benzyl]-piperidin-4-ylmethyl}-acetamide] | 0.34 | 93 | –
17 | CN(Cc1ccc([C@H]2COc3cccnc3O2)cc1)C1CCS(=O)(=O)C1 (stereo partly drawn) [Example 280, [(S)-4-(2,3-Dihydro-[1,4]dioxino[2,3-b]pyridin-3-yl)-benzyl]-(1,1-dioxo-tetrahydro-1lambda-6-thiophen-3-yl)-methyl-amine] | 2.4 | 230 | –
18 | O=C(CO)N1C[C@@H]2CC[C@H]1CN2Cc1ccc([C@H]2COc3cccnc3O2)cc1 [Example 281, 1-{(1S,4S)-5-[(S)-4-(2,3-Dihydro-[1,4]dioxino[2,3-b]pyridin-3-yl)-benzyl]-2,5-diaza-bicyclo[2.2.2]oct-2-yl}-2-hydroxy-ethanone] | 0.17 | 37 | –
19 | NC(=O)N1CC2(CCN(Cc3ccc([C@H]4COc5cccnc5O4)cc3)CC2)c2ccccc21 [Example 282] | – | 61 | 0.17
20 | NC(=O)NCC1CCN(Cc2ccc([C@H]3COc4cccnc4O3)cc2)CC1 [Example 283, {1-[(S)-4-(2,3-Dihydro-[1,4]dioxino[2,3-b]pyridin-3-yl)-benzyl]-piperidin-4-ylmethyl}-urea] | 0.36 | 540 | –
21 | N#CCN1CCN(Cc2ccc([C@H]3COc4cccnc4O3)cc2)CC1 [Example 284, {4-[(S)-4-(2,3-Dihydro-[1,4]dioxino[2,3-b]pyridin-3-yl)-benzyl]-piperazin-1-yl}-acetonitrile] | 3.9 | 290 | –
22 | O=C1OC[C@H]2CN(Cc3ccc([C@H]4COc5cccnc5O4)cc3)CCN12 [Example 285, (R)-7-[(S)-4-(2,3-Dihydro-[1,4]dioxino[2,3-b]pyridin-3-yl)-benzyl]-hexahydro-oxazolo[3,4-a]pyrazin-3-one] | 1 | 200 | –
23 | O=C(C1CCN(Cc2ccc([C@H]3COc4cccnc4O3)cc2)CC1)N1CC(O)C1 [Example 286, {1-[(S)-4-(2,3-Dihydro-[1,4]dioxino[2,3-b]pyridin-3-yl)-benzyl]-piperidin-4-yl}-(3-hydroxy-azetidin-1-yl)-methanone] | 0.35 | 190 | –
24 | O=C(NC[C@@H]1CCCO1)C1CCN(Cc2ccc([C@H]3COc4cccnc4O3)cc2)CC1 [Example 287, 1-[(S)-4-(2,3-Dihydro-[1,4]dioxino[2,3-b]pyridin-3-yl)-benzyl]-piperidine-4-carboxylic acid [(S)-1-(tetrahydro-furan-2-yl)methyl]-amide] | 0.19 | 55 | –
